Source: patent publication US20250351818A1, “PESTICIDAL BAIT COMPOSITION AND PROCESSES RELATED THERETO” (priority 2022, published 2025)

Assays:
[1] = system: stunts (corn stunt disease); experiment: Field corn, four foliar applications of pesticides solo and in mixture with kasugamycin, incidence of stunts and yield; format: in vivo; conditions: four foliar applications 7 days apart from V2; 91 days after sowing
From the text: Another major problem is corn stunt disease. S. kunkelii, a spiroplasma often referred to as corn stunt spiroplasma and a Maize bushy stunt phytoplasma (MBSP) can both survive in the maize leafhopper (Dalbulus maidis), and it causes corn stunt disease. Foliar use of insecticides can be used to partially control Dalbulus maidis, however, the use of this method to control corn stunt disease is not very successful. kasugamycin (Ksg) is an aminoglycoside antibiotic. However, we have discovered that mixing kasugamycin with pesticides can control the Dalbulus maidis and S. kunkelii at the same time thereby helping to avoid corn stunt disease brought by the vector Dalbulus maidis. The amount of kasugamycin can vary from 20 g ai/ha to 100 g ai/ha in mixture with the insecticides when used in foliar applications, for example, spinetoram and sulfoxaflor at 18 g ai/ha+32 g ai/ha respectively, or spinetoram and methomyl at 18 g ai/ha and 220 g ai/ha, respectively. […]
Four foliar applications of pesticides solo and in mixture with kasugamycin were performed in corn plants in field starting at V2 (2 true-leaves) stage of the crop with 7 days apart. […] The incidence of plants with symptoms of stunts at 53 and 91 days after sowing and the yield were assessed. […]

[2] = system: phytoplasma and spiroplasma (corn stunt); experiment: Corn field naturally infected, foliar kasugamycin, severity of the stunts; format: in vivo; conditions: 100 g ai/ha; for severity of the disease (percent of leaf area infected, visual): 1 application/week for 4 weeks
From the text: Another major problem is corn stunt disease. S. kunkelii, a spiroplasma often referred to as corn stunt spiroplasma and a Maize bushy stunt phytoplasma (MBSP) can both survive in the maize leafhopper (Dalbulus maidis), and it causes corn stunt disease. Foliar use of insecticides can be used to partially control Dalbulus maidis, however, the use of this method to control corn stunt disease is not very successful. kasugamycin (Ksg) is an aminoglycoside antibiotic. However, we have discovered that mixing kasugamycin with pesticides can control the Dalbulus maidis and S. kunkelii at the same time thereby helping to avoid corn stunt disease brought by the vector Dalbulus maidis. The amount of kasugamycin can vary from 20 g ai/ha to 100 g ai/ha in mixture with the insecticides when used in foliar applications, for example, spinetoram and sulfoxaflor at 18 g ai/ha+32 g ai/ha respectively, or spinetoram and methomyl at 18 g ai/ha and 220 g ai/ha, respectively. However, with the bait composition the amount of kasugamycin to use in the pesticidal bait compositions, based on the total weight of a pesticidal bait composition, is from about 2.0 weight percent to about 0.01 weight percent, preferably from about 1.0 weight percent to about 0.1 weight percent, and even more preferably from about 0.5 weight percent to about 0.25 weight percent. Of course, the kasugamycin weight percent will vary depending on various factors such as, local environmental conditions and pest control effects desired, among other factors.
A corn field with plants naturally infected by both phytoplasma and spiroplasma was sprayed with kasugamycin at 100 g ai/ha. The plants with 4 true-leaves were sprayed with 1 application/week for 4 weeks. Fifteen days after the first application and 15 days after the fourth spraying the severity of the stunts were evaluated visually, considering the percent of leaf area infected (showing symptoms). […]

C[C@H]1O[C@H](O[C@H]2[C@H](O)[C@@H](O)[C@@H](O)[C@H](O)[C@@H]2O)[C@@H](N)C[C@@H]1NC(=N)C(=O)O [kasugamycin]
reduction of the progression of the disease in comparison with the untreated [1]: 11%
severity of the disease (percent of leaf area infected, visual) ([2]; 15 days after the fourth application): 43%
severity of the disease (percent of leaf area infected, visual) ([2]; fifteen days after the first application): 27%
reduction of the progression of the disease vs untreated ([2]; 15 days after the fourth application (43% vs 54% untreated)): 20%
